Measurements taken from US20260317312A1, “ISOXAZOLIDINES AS RIPK1 INHIBITORS AND USE THEREOF” (GENZYME CORPORATION, priority 2023, published 2026).
One block for each molecule: values may come before it.

Legend:
U937 cells = assay: Cellular assay in U937 cells to measure activity of RIPK1-inhibitors on cell death (necroptosis); format: cell-based; conditions: overnight (18 to 24 hrs), 37° C., MTS readout
Source text: Upon TNF-Receptor I ligation, Ser/Thr kinase RIPK1 is recruited to a transient receptor complex I. Upon modification of RIPK1 which promotes activation of RIPK1, complex lib can form, that involves recruitment of RIPK3 and MLKL (mixed lineage-kinase domain-like protein) which then translocates from the cytosol to the plasma membrane to execute cell death (Cai, Z. et al, Nat. Cell Biol. (2014)16:55-65).
Cell death was quantified in 96 well plates by determination of the amount of live cell using a CellTiter 96 Aqueous reagent (Promega), a calorimetric method to measure the number of live cells by reducing tetrazolium compound [3-(4,5-dimethylthiazol-2-yl)-5-(3-carboxymethoxyphenyl)-2-(4-sulfophenyl)-2H-tetrazolium, inner salt; MTS] into formazan. Absorbance of formazan was read at 490 nm. The inhibitory activity of the test compound was quantified in a concentration response curve (CRC) experiment.
Compounds were obtained as 10 mM stock solutions and were diluted 1 to 10 volumes with DMSO to yield a 1 mM solution. From this solution 2 μl were diluted with 998 μl growth medium. 100 μl of 2 μM compound solution was further diluted sequentially with a dilution factor of 2.5 by adding 150 μl growth medium. A total of 10 concentrations were tested ranging from 10 μM to 0.26 nM or from 1 μM to 0.07 nM.
U937 cells were cultured in RPM11640 Glutamax and 10% heat inactivated FBS. 50 μl cell suspension containing 1×10^6 cells/ml supplemented with 50 μM zVAD.fmk (Benzyloxycarbonyl-Val-Ala-Asp (Ome) fluoromethylketone) and 100 ng/ml recombinant human TNFα were dispensed in each well of a 96-well plate. 50 μl of compound dilutions (described in Cellular assay in U937 cells) were added and the cell suspension incubated overnight (18 to 24 hrs) at 37° C., 5% CO2 in a humidified atmosphere (95% rH). High (no compound) and low control (no TNFα, zVAD.fmk) were tested with 7 replicates; all compound concentrations were tested in duplicates on each experimental plate.
CellTiter 96 Aqueous reagent was mixed (100 μl PMS (phenazine methosulfate) solution/2 ml MTS (3-(4,5-[…])-5-(3-carboxymethoxyphenyl)-2-(4-sulfophenyl)-2H-tetrazolium, inner salt) solution) and 20 μl were added per well. After 4 hrs incubation at 37° C. (5% CO2 95% rH) optical density was measured at 490 nm on a microplate reader (Tecan Infinite M1000).
The % inhibition is expressed as percentage of the maximal inhibition value obtained in the absence of TNFα/zVAD.fmc.

[1] = molecular target: T1, hRIPK1 (aa 1-375) fusion protein (Homo sapiens, UniProt Q13546); assay: Receptor-Interacting Protein Kinase 1 inhibition, ADP Glo assay (conversion of ATP to ADP due to autophosphorylation); format: biochemical; conditions: ATP 50 μM, 30 min preincubation, 240 min incubation, room temperature, DMSO 1%
T1 construct: hRIPK1 (aa 1-375) fusion protein
T1 sequence (Q13546 1-375): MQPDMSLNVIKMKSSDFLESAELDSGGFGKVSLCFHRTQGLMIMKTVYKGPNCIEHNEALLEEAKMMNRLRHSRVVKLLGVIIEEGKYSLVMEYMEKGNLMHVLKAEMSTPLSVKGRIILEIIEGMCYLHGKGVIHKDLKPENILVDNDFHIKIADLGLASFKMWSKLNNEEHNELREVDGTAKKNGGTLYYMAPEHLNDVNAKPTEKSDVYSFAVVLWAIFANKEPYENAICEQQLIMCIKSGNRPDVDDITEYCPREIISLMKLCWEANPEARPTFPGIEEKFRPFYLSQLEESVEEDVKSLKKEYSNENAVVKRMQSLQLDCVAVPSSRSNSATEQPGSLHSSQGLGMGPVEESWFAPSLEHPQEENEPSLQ
Experimental: The catalytic activity of RIPK1 was measured by monitoring the conversion of Adenosine triphosphate (ATP) to Adenosine diphosphate (ADP) due to autophosphorylation using an ADP-Glo kinase kit (Promega, catalog no. V9104).
In detail, 2 μl recombinantly produced hRIPK1 (aa 1-375) fusion protein (end concentration 3.6 μg/ml) and 2 μl compound (end concentration 33300-1.69 nM; DMSO end concentration 1%) were incubated for 30 minutes at room temperature and then 2 μl ATP (ADP Glo kit, end concentration 50 μM) were added. After another 240 minutes incubation at room temperature, 5 μl Promega ADP-Glo reagent I was added to quench the reaction and deplete unconsumed ATP. After an incubation period of 30 minutes, 10 μl Promega ADP-Glo detection reagent II was added resulting in conversion of ADP to ATP, which generates a light-reaction between luciferase and luciferin. Luminescence was quantified after 30 minutes with a Pherastar FS (BMG LABTECH, Ortenberg).
The adjustment was obtained by nonlinear regression using the Levenberg Marquardt algorithm.

[2] = Homo sapiens, U-937, TNFα/zVAD.fmk induced cell death (necroptosis)
[3] = TNFα/zVAD.fmk induced cell death (necroptosis)

SMILES: N#Cc1cc(F)cc([C@@H]2CCON2C(=O)[C@H]2C[C@@H](Nc3ccc(F)c(C#N)c3)C2)c1 [Compound 32, cis-5-((3-((S)-3-(3-cyano-5-fluorophenyl)isoxazolidine-2-carbonyl)cyclobutyl)amino)-2-fluorobenzonitrile]
IC50 (U937 cells; [2]): 50 nM
IC50 [1]: 28 nM

SMILES: N#Cc1cc(F)cc(N[C@H]2C[C@@H](C(=O)N3OCC[C@H]3c3cncc(F)c3)C2)c1 [Compound 36, cis-3-fluoro-5-((3-((S)-3-(5-fluoropyridin-3-yl)isoxazolidine-2-carbonyl)cyclobutyl)amino)benzonitrile]
IC50 (U937 cells; [2]): 98 nM
IC50 [1]: 42 nM

SMILES: N#Cc1cc(F)cc(N[C@H]2CC[C@@H](C(=O)N3OCC[C@H]3c3cc(F)cc(C#N)c3)CC2)c1 [Compound 39, cis-3-((S)-2-(4-((3-cyano-5-fluorophenyl)amino)cyclohexane-1-carbonyl)isoxazolidin-3-yl)-5-fluorobenzonitrile]
IC50 (U937 cells; [2]): 401 nM
IC50 [1]: 111 nM

SMILES: N#Cc1cc(F)cc([C@@H]2CCON2C(=O)[C@H]2C[C@@H](n3cnc4ccccc43)C2)c1 [Compound 40, cis-3-((S)-2-(3-(1H-benzo[d]imidazol-1-yl)cyclobutane-1-carbonyl)isoxazolidin-3-yl)-5-fluorobenzonitrile]
IC50 (U937 cells; [2]): 262 nM
IC50 [1]: 18 nM

SMILES: O=C([C@H]1C[C@@H](n2cnc3ccccc32)C1)N1OCC[C@H]1c1cc(F)cc(F)c1 [Compound 41, cis-(3-(1H-benzo[d]imidazol-1-yl)cyclobutyl)((S)-3-(3,5-difluorophenyl)isoxazolidin-2-yl)methanone]
IC50 (U937 cells; [2]): 61 nM
IC50 [1]: 16 nM

SMILES: O=C([C@H]1C[C@@H](n2cnc3ccccc32)C1)N1OCC[C@H]1c1cncc(F)c1 [Compound 42, cis-(3-(1H-benzo[d]imidazol-1-yl)cyclobutyl)((S)-3-(5-fluoropyridin-3-yl)isoxazolidin-2-yl)methanone]
IC50 (U937 cells; [2]): 921 nM
IC50 [1]: 156 nM

SMILES: N#Cc1cc(F)cc([C@@H]2CCON2C(=O)[C@H]2CC[C@H](COc3ccc(F)c(C#N)c3)CC2)c1 [Compound 44, trans-5-((4-((S)-3-(3-cyano-5-fluorophenyl)isoxazolidine-2-carbonyl)cyclohexyl)methoxy)-2-fluorobenzonitrile]
IC50 (U937 cells; [2]): 5 nM
IC50 [1]: 27 nM

SMILES: N#Cc1cc(OC[C@H]2CC[C@H](C(=O)N3OCC[C@H]3c3cc(F)cc(F)c3)CC2)ncn1 [Compound 45, trans-6-((4-((S)-3-(3,5-difluorophenyl)isoxazolidine-2-carbonyl)cyclohexyl)methoxy)pyrimidine-4-carbonitrile]
IC50 (U937 cells; [2]): 38 nM
IC50 [1]: 44 nM

SMILES: O=C([C@H]1CC[C@H](COc2cc(Cl)ncn2)CC1)N1OCC[C@H]1c1cc(F)cc(F)c1 [Compound 46, trans-(4-(((6-chloropyrimidin-4-yl)oxy)methyl)cyclohexyl)((S)-3-(3,5-difluorophenyl)isoxazolidin-2-yl)methanone]
IC50 (U937 cells; [2]): 14 nM
IC50 [1]: 41 nM

SMILES: NC(=O)c1cc(OC[C@H]2CC[C@H](C(=O)N3OCC[C@H]3c3cc(F)cc(F)c3)CC2)ncn1 [Compound 47, trans-6-((4-((S)-3-(3,5-difluorophenyl)isoxazolidine-2-carbonyl)cyclohexyl)methoxy)pyrimidine-4-carboxamide]
IC50 (U937 cells; [2]): 21 nM
IC50 [1]: 50 nM

SMILES: N#Cc1cc(F)cc(OC[C@H]2CC[C@H](C(=O)N3OCC[C@H]3c3cc(F)cc(F)c3)CC2)c1 [Compound 48, trans-3-((4-((S)-3-(3,5-difluorophenyl)isoxazolidine-2-carbonyl)cyclohexyl)methoxy)-5-fluorobenzonitrile]
IC50 (U937 cells; [2]): 13 nM
IC50 [1]: 44 nM

SMILES: N#Cc1cc(F)cc(OC[C@H]2CC[C@H](C(=O)N3OCC[C@H]3c3cc(F)cc(C#N)c3)CC2)c1 [Compound 49, trans-3-((S)-2-(4-((3-cyano-5-fluorophenoxy)methyl)cyclohexane-1-carbonyl)isoxazolidin-3-yl)-5-fluorobenzonitrile]
IC50 (U937 cells; [2]): 18 nM
IC50 [1]: 44 nM

SMILES: N#Cc1cc(F)cc(O[C@H]2C[C@H](C(=O)N3OCC[C@H]3c3cc(F)cc(F)c3)C2)c1 [Compound 50, trans-3-(3-((S)-3-(3,5-difluorophenyl)isoxazolidine-2-carbonyl)cyclobutoxy)-5-fluorobenzonitrile]
IC50 (U937 cells; [2]): 130 nM
IC50 [1]: 25 nM

SMILES: N#Cc1cc(O[C@H]2C[C@H](C(=O)N3OCC[C@H]3c3cc(F)cc(F)c3)C2)ccc1F [Compound 51, trans-5-(3-((S)-3-(3,5-difluorophenyl)isoxazolidine-2-carbonyl)cyclobutoxy)-2-fluorobenzonitrile]
IC50 (U937 cells; [2]): 6 nM
IC50 [1]: 21 nM

Continued by falling IC50 [1], values first:

IC50 [1]: 34 nM
SMILES: N#Cc1cc(F)cc(N[C@H]2C[C@@H](C(=O)N3OCC[C@H]3c3cc(F)cc(C#N)c3)C2)c1 [Compound 37, cis-3-((S)-2-(3-((3-cyano-5-fluorophenyl)amino)cyclobutane-1-carbonyl)isoxazolidin-3-yl)-5-fluorobenzonitrile]
IC50 (U937 cells; [2]): 45 nM

IC50 [1]: 27 nM
SMILES: N#Cc1cc(F)cc(NC[C@H]2CC[C@H](C(=O)N3OCC[C@H]3c3cc(F)cc(C#N)c3)CC2)c1 [Compound 38, trans-3-((S)-2-(4-(((3-cyano-5-fluorophenyl)amino)methyl)cyclohexane-1-carbonyl)isoxazolidin-3-yl)-5-fluorobenzonitrile]
IC50 (U937 cells; [2]): 22 nM

IC50 [1]: 22 nM
SMILES: N#Cc1cc(N[C@H]2C[C@@H](C(=O)N3OCC[C@H]3c3cncc(F)c3)C2)ccc1F [Compound 33, cis-2-fluoro-5-((3-((S)-3-(5-fluoropyridin-3-yl)isoxazolidine-2-carbonyl)cyclobutyl)amino)benzonitrile]
IC50 (U937 cells; [3]): 61 nM

IC50 [1]: 20 nM
SMILES: N#Cc1cc(NC[C@H]2CC[C@H](C(=O)N3OCC[C@H]3c3cncc(F)c3)CC2)ccc1F [Compound 34, trans-2-fluoro-5-(((4-((S)-3-(5-fluoropyridin-3-yl)isoxazolidine-2-carbonyl)cyclohexyl)methyl)amino)benzonitrile]
IC50 (U937 cells; [2]): 11 nM

IC50 [1]: 18 nM
SMILES: N#Cc1cc(F)cc([C@@H]2CCON2C(=O)[C@H]2CC[C@H](CNc3ccc(F)c(C#N)c3)CC2)c1 [Compound 35, trans-5-(((4-((S)-3-(3-cyano-5-fluorophenyl)isoxazolidine-2-carbonyl)cyclohexyl)methyl)amino)-2-fluorobenzonitrile]
IC50 (U937 cells; [3]): 4 nM

IC50 [1]: 18 nM
SMILES: N#Cc1cc(OC[C@H]2CC[C@@H](C(=O)N3OCC[C@H]3c3cc(F)cc(F)c3)CC2)ccc1F [Compound 52, cis-5-((4-((S)-3-(3,5-difluorophenyl)isoxazolidine-2-carbonyl)cyclohexyl)methoxy)-2-fluorobenzonitrile]
IC50 (U937 cells; [2]): 6 nM

IC50 [1]: 11 nM
SMILES: N#Cc1cc(OC[C@H]2CC[C@H](C(=O)N3OCC[C@H]3c3cc(F)cc(F)c3)CC2)ccc1F [Compound 43, trans-5-((4-((S)-3-(3,5-difluorophenyl)isoxazolidine-2-carbonyl)cyclohexyl)methoxy)-2-fluorobenzonitrile]
IC50 (U937 cells; [2]): 2 nM
